The target of one experiment is T1, COX2 (Mus musculus, UniProt Q05769).
T1 construct: endogenous in cells; host or cells: primary neurons from mouse cerebrum
T1 sequence (Q05769 18-604): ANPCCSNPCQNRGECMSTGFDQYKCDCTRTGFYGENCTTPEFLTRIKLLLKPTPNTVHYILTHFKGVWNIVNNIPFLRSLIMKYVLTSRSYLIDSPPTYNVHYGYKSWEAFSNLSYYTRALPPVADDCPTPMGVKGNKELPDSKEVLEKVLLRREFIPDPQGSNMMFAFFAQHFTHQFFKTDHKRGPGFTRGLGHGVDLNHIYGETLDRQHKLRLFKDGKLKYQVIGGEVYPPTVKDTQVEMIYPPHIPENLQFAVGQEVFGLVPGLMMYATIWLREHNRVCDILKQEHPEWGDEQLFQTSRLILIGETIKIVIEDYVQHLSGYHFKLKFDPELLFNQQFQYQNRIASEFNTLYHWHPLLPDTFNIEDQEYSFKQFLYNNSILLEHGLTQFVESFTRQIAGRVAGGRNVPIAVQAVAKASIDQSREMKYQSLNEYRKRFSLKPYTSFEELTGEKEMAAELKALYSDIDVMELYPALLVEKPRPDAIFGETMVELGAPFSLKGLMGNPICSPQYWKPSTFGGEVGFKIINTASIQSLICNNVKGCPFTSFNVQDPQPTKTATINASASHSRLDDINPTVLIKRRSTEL
Nature of the experiment: COX2 acetylation analysis with [14C]N-acetyl sphingosine. It is filed as cell-based. The note with it: 2 uCi [14C]N-acetyl sphingosine; FIG. 8c. As for the experimental part:
In order to measure the neuroinflammatory resolution factor, after culturing neurons from mouse cerebrum, CM was prepared by treatment with 10 nM N-acetyl sphingosine 1 phosphate (Toronto Research chemicals, C262710) and N-acetyl sphingosine (Sigma, 01912). For COX2 acetylation analysis, neurons were cultured from mouse cerebrum and then treated with 2 uCi [^14C]N-acetyl sphingosine (ARC, ARC1024). In addition, for in vivo experiments, 7-month-old APP/PS1 mice were injected with 5 mg/kg N-acetyl sphingosine (Sigma, 01912), 1 mg/kg FTY720 and 3 uM S1P daily for 4 weeks via intraperitoneal injection. 1 month-old NPC mice were injected with 5 mg/kg N-acetyl sphingosine (Sigma, 01912) and 2-month-old FUS mice with 30 mg/kg N-acetyl sphingosine (Sigma, 01912) daily for 4 weeks via subcutaneous injection.
Next, it was confirmed using N-acetyl sphingosine with C^14 attached to confirm whether the secretion of the neuroinflammatory resolution factor by the compounds was due to the increase in COX2 acetylation,
In addition, it was confirmed that serine 565 (S565) against the COX2 peptide 560-[…]-575 was acetylated in the presence of N-acetyl sphingosine (FIG. 8d).

Another experiment deals with FUS R521C mice. Nature of the experiment: amyotrophic lateral sclerosis animal model (FUS R521C mice): immunofluorescence, Tail suspension, Rota-rod, Hanging wired test. It is filed as in vivo, mouse. Conditions: 2-month-old FUS mice, 30 mg/kg daily for 4 weeks, subcutaneous. From the text:
(§1) It has been approved for mouse experiments by the Kyungpook National University Institutional Animal Care and Use Committee (IACUC). A transgenic mouse line overexpressing APPswe (hAPP695swe) or PS1 (presenilin-1M146V) based on C57BL/6 mice (Charles River, UK) was used. [Hereinafter, APP mouse: mouse overexpressing APPswe, PS1 mouse: mouse overexpressing presenilin-1M146V; GlaxoSmithKline]. As an Alzheimer's (AD) animal model, SphK1 tg (SphK1 gene overexpressing mouse) was crossed with APP mice and APP/PS1 mice to prepare APP/PS1/SphK1 tg mice. Niemanpick (NP-C) animal model, Balb/C (Orient, Wild type), NPC mutant mouse lacking NPC1 gene (Provided by Riken, Japan, NP-C mice; less weight than normal mice of the same age, and severe motor function loss from 4 to 6 weeks of age, limb tremors and seizures appear, and lifespan is approximately 9 to 10 weeks. Is) was used. As an animal model for amyotrophic lateral sclerosis (ALS), a transgenic mouse (FUS) line overexpressing RUS R521C based on C57BL/6 mice (Charles River, UK) was used.
(§2) After fixing the cerebral and hippocampus of the mouse, anti-20G10 (mouse, 1:1000) against amyloid-β (Aβ) 42 and anti-G30 (rabbit, 1:1000) against Aβ 40, anti-MAP2 (chicken, 1:2000), anti-Synaptophysin (mouse, 1:100), anti-Synapsin1 (rabbit, 1:500), anti-PSD95 (mouse, 1:100), anti-Iba-1 (rabbit, 1:500), Anti-GFAP (rabbit, 1:500) was cultured together. The site was analyzed using a laser scanning confocal microscope or Olympus BX51 microscope equipped with Fluoview SV1000 imaging software (Olympus FV1000, Japan). Metamorph software (Molecular Devices) was used to quantify the percentage of the area of the stained area relative to the area of the total tissue.
(§3) To check the motor ability of each experimental group mice, a Rota-rod, Beam test, Tail suspension test, and Hanging wired test were performed. […] The endurance time of the experimental animal was measured in seconds, and the average value was recorded. […] In the Beam test, the time taken to move to the end point after placing the mouse at the start point of a 12 mm wide bar was measured. […]
(Falling from the rotarod earlier than controls is read as motor impairment.)

The next experiment concerns NP-C mice. Nature of the experiment: Niemann-Pick (NP-C) animal model: immunofluorescence, Rota-rod, Beam test. It is filed as in vivo, mouse. The note with it: 1 month-old NPC mice, 5 mg/kg daily for 4 weeks, subcutaneous.
Excerpt: as §1, §2, §3

Molecules are shown by their SMILES.

In the case of `CCCCCCCCCCCCC/C=C/[C@@H](O)[C@H](CO)NC(C)=O` [N-acetyl sphingosine], the “COX2 acetylation compared with the sample of SphK1, acetyl-CoA and sphingosine” value at COX2 was “more acetylation”. The “activity of microglia (Iba1) vs FUS R521C mice” value in the experiment with FUS R521C mice (FIG. 11a) is on record as “decreased”. Moreover, the “activity of astrocytes (GFAP) vs FUS R521C mice” value in the experiment with FUS R521C mice (FIG. 11b) was “decreased”. In addition, the “exercise capacity (Tail suspension, Rota-rod, Hanging wired test) vs FUS R521C mice” value in the experiment with FUS R521C mice (FIGS. 11c to e) is recorded as “improved”. Further, in the experiment on NP-C mice (FIG. 10a), the “microglia (Iba1) in brain cortex vs NP-C mice” value is “remarkable decrease”. In the experiment on NP-C mice (FIG. 10b), the “astrocytes (GFAP) in brain cortex vs NP-C mice” value is on record as “remarkable decrease”. In the experiment on NP-C mice (FIGS. 10c and d), the “exercise capacity (Rota-rod, Beam test) vs NP-C mice” value is recorded as “improved”.

The values are drawn from US11899025B2, “Pharmaceutical composition for preventing or treating neurodegenerative diseases comprising COX2 acetylating agent as active ingredient” (KYUNGPOOK NATIONAL UNIVERSITY INDUSTRY-ACADEMIC COOPERATION …, priority 2018, dated 2024).
